Test results from patent US20260158102A1, “CYCLIC PEPTIDE DERIVATIVE COMPOSITION FOR TREATING OR PREVENTING NEUROPATHIC PAIN AND/OR INFLAMMATORY PAIN” (DKS Co. Ltd., priority 2022, published 2026).

Assay: Measurement of blood glucose level in rat STZ-induced diabetes model
Format: in vivo
Details: mean ± SE
Procedure: Compound 9 (50 mg/mL) was diluted with water for injection to obtain a 1 mg/mL administration specimen. For the specimens to be administered at 0.1 mg/mL and 0.01 mg/mL, the specimen to be administered at 1 mg/mL was diluted stepwise with water for injection. Each administration specimen was divided into PP disposable tubes every day and stored in a storehouse (freezer: MDF-MU339H-PJ, PHC Corporation) under the condition of freezing (−30° C. to −20° C., measured value: −26.4 to −24.5° C.). Preparation was performed on the day before the start of administration.
Water for injection was added to and dissolved in Pregabalin taken out from the capsule to obtain 2 mg/mL. It was prepared before use.
• Animal species: rat (SPF) • Strain: Crl: CD (SD) • Date of animal acquisition, gender, age in weeks, number of animals acquired, and weight range after 1 day of acquisition • First and second courses: Apr. 6, 2022, male, 7 weeks old, 35 animals, 217 to 237 g • Third and fourth courses: Apr. 13, 2022, male, 7 weeks old, 35 animals, 216 to 235 g • Source: […].
• Dose volume: calculated at 2 mL/kg based on the body weight on the day of administration. • Number of times of administration: once • Day of administration: 7 days before the day of starting administration of the test substance.
• Dose volume: calculated at 1 mL/kg based on the body weight on the day of administration. • Number of times of administration: 9 times • Interval of administration: once every 3 days (evaluation was performed on the day after administration) • Day of starting administration: day 8 of STZ administration (day of STZ administration is counted as day 1).
• Dose volume: calculated at 10 mL/kg based on the body weight on the day of administration. • Number of times of administration: Administration was performed once on the day of evaluation of neuropathic pain, twice in total, and on the other days of administration, a vehicle for a control substance (water for injection) was orally administered.
On days 7 and 35 of STZ administration, about 50 μL of blood was collected from the tail vein using a winged injection needle (Terumo Corporation) equipped with a heparinized capillary (DRUMMOND […]).
The blood obtained above was centrifuged [centrifugal conditions: 4° C., 3,000 rpm (×2,150 g), 15 min] with a centrifuge (CF 9RX, Hitachi Koki Co., Ltd.) to obtain plasma. Blood glucose levels of a part of plasma obtained by blood collection on day 7 and day 35 after STZ administration were measured by hexokinase G-6 PDH method (L-type Wako Glu2, FUJIFILM Wako Pure Chemical Corporation) using a biochemical automatic analyzer (AU480, Beckman Coulter, Inc.). […] The plasma after the measurement was discarded.
The mean and standard error of each group were calculated for the 50% withdrawal threshold, body weight, and blood glucose level.
The body weight was an integer.
No significant difference test of body weight and blood glucose levels was performed.

Structure (SMILES)	Blood glucose level, Glu (0.01 mg/kg iv group, day 7 of STZ administration (before start of dosing)) [mg/dL]	Blood glucose level, Glu (0.01 mg/kg iv, day 35 of STZ administration) [mg/dL]	Blood glucose level, Glu (0.1 mg/kg iv group, day 7 of STZ administration (before start of dosing)) [mg/dL]	Blood glucose level, Glu (0.1 mg/kg iv, day 35 of STZ administration) [mg/dL]	Blood glucose level, Glu (1 mg/kg iv group, day 7 of STZ administration (before start of dosing)) [mg/dL]	Blood glucose level, Glu (1 mg/kg iv, day 35 of STZ administration) [mg/dL]	Blood glucose level, Glu (20 mg/kg oral group, day 7 of STZ administration (before start of dosing)) [mg/dL]	Blood glucose level, Glu (20 mg/kg oral, day 35 of STZ administration) [mg/dL]
CC[C@@]1(C)Oc2cc(ccc2O)C[C@H](NC)C(=O)N[C@@H](C(C)C)C(=O)N[C@@H]1C(=O)N[C@@H](CC(=O)O)C(=O)O [Compound 9]	581.8 ± 18.5	623.6 ± 22.0	576.3 ± 15.5	608.4 ± 32.7	562.7 ± 14.7	605.6 ± 18.9	–	–
CC(C)C[C@H](CN)CC(=O)O [Pregabalin, reference compound]	–	–	–	–	–	–	575.8 ± 20.0	567.4 ± 22.5
